Source: paper PMC12591170, “Glabridin‐Gold(I) Complex as a Novel Immunomodulatory Agent Targeting TrxR and MAPK Pathways for Synergistic Enhancement of Antitumor Immunity” (Advanced Science, 2025)
Entries after “also recorded” stand apart in the source; their conditions may differ.

Assays:
HepG2 cells [1] = test: MTT antiproliferative assay, HepG2; format: cell-based, human
Description: All cells were incubated at 37 °C by DMEM complete medium (containing 1% penicillin−streptomycin and 12% FBS) in 5% CO2 incubator. 2–5 × 10^3 cells were cultured in 96‐well plates and each well contained 100 µL complete medium. OXA was dissolved in water, and all other complexes were dissolved in DMF. After cells adhered in the wells, different concentrations of complexes were diluted in 100 µL complete medium and added in the wells. The final volume in the each well was 200 µL and the content of DMF was maximum 0.5%. After 72 h incubation, the antiproliferative activity was tested by MTT assay.

HepG2 cells [2] = test: Apoptosis assay (annexin V-EGFP/PI); format: cell-based, human; details: HepG2, 24 h
Description: 4 × 10^5 HepG2 cells was seeded in 6‐well plates for overnight incubation. DMF (0.1%), AF (4 µM) or different concentrations of 6d (2, 4, 8 µM) were added in the wells for 24 h. PBS was applied to wash cells for two times, and cells were collected subsequently. After washing twice by PBS, Annexin V‐EGFP/PI Apoptosis Detection kit was used to dye the cells. Then, the apoptosis ratio was analyzed by flow cytometer.

HepG2 cells [3] = test: DAMPs / ICD effect (CRT, HMGB1, ATP release); format: cell-based, human
Description: 6‐well plate was applied to incubate 2 × 10^5 HepG2 cells. […] After treatment, the liquid was collected for extracellular ATP release assay by ATP Assay kit.
(§1) HepG2 cells were incubated in 6 cm culture dishes and treated with different complexes. The treated cells were lysed with lysis buffer (RIPA:PMSF:phosphatase inhibitor:protease inhibitor = 100:1:1:1). The lysed cells were further broken by sonication, and proteins were isolated by centrifugation. The protein concentrations were detected by BCA assay. 10% SDS PAGE gel was usually applied to separate the different kDa of proteins, and more than 200 kDa of proteins were separated using 8% SDS PAGE gel. After seperation, proteins were transferred onto polyvinylidene difluoride (PVDF) membranes. The target proteins were labeled by various specific primary antibodies at 4 °C overnight. Then, the membranes were treated with anti‐rabbit or anti‐mouse secondary antibody for 2 h. Tris buffered saline with tween 20 (TBST) was applied to wash the membranes after each operation above. The target proteins’ bands were detected by the enhanced chemiluminescence (ECL) procedure.
(§2) 5 × 10^4 HepG2 cells were treated with complexes in 24‐well plates for 24 h. Subsequently, cells were fixed with 4% paraformaldehyde. Various specific antibodies were added for incubation at 4 °C overnight after cells were permeabilized with Triton X‐100 (except for membrane proteins) and blocked with BSA. Then, the cells were incubated with fluorescently‐labeled secondary antibodies in darkness for 2 h. After that, DAPI was added to stain nuclear in darkness. PBS was applied for washing after each operation above (Tris buffered saline (TBS) was applied for washing if phosphorylated protein was analyzed). The cell images were captured by the fluorescence microscopy.

immature DCs = test: DC maturation assay with medium of treated Hepa1-6 cells; format: cell-based, C57BL/6 mouse; details: 24 h
Description: The monocytes were extracted from the leg bone marrow of a C57BL/6 mouse and incubated in the 1640 complete medium with rmGM‐CSF (20 ng mL^−1) and IL‐4 (20 ng mL^−1). The medium was replaced partially every other day, and immature DCs were differentiated after 7 days. […] The medium from treated Hepa1‐6 cells was collected and coincubated with the differentiated DCs for 24 h. After cells collection, the coincubated DCs were labeled with CD11c antibody, CD80 antibody and CD86 antibody. Then, the DC maturation ratio was analyzed by a flow cytometer.

PD-L1 = PD-L1 expression in HepG2 (western blot, immunofluorescence, flow cytometry); format: cell-based, human; details: HepG2, 24 h
Description: as §1, §2
4 × 10^5 HepG2 cells were incubated in 6‐well plates, and complexes were added in the wells. The cells were collected after incubation, and the treated cells were labeled with probes or fluorescently‐labeled antibodies. A flow cytometer was applied to analyze the labeled cells.

phosphorylated Akt = test: Western blot of phosphorylated Akt in HepG2; format: cell-based, human; details: HepG2, 24 h; GLA at 8 µM
Description: as §1

[4] = tested on: MAPK pathway (phosphorylated MEK1/2 and ERK1/2); test: In vivo MAPK pathway in tumor tissue; parameters: species or system C57BL/6 mice; details: western blot, day 13
[5] = In vivo tolerability (body weight, survival, organ H&E)
Description: All mice were 6–8 weeks old males and procured from Hangzhou Medical College, located in Hangzhou, China. […] 2 × 10^6 Hepa1‐6 cells in 100 µL DMEM were subcutaneously seeded in underarms of C57BL/6 mice. […] Meanwhile, the mice weights and tumor volume were recorded, and the calculation formula of tumor volume was Volume = Width^2 × Length/2. After 13 days, all mice were sacrificed for collection of tumors, hearts, livers, spleens, lungs and kidneys. Collagenase IV (1 mg mL^−1) and DNase I (1 µg mL^−1) were applied to digest a part of the tumor tissue into cell suspension, and lysis buffer was used to remove red blood cells. The prepared cells above were stained with antibodies (anti‐CD3e‐FITC, and anti‐CD8a‐PE; anti‐CD11c‐APC, anti‐CD80‐PE, and anti‐CD86‐FITC; anti‐CD45‐Percp, anti‐CD11b‐APC, and anti‐Ly‐6G/Ly‐6C(Gr‐1)‐FITC; anti‐CD11b‐APC, anti‐CD206‐PE, and CD86‐FITC). CD3^+CD8^+ T cells, CD80^+CD86^+ DCs, CD11b^+Gr‐1^+ MDSCs, CD206^−CD86^+ M1‐type macrophages and CD206^+CD86^− M2‐type macrophages were analyzed by flow cytometry. Then, another part of tumor tissues were fixed with 4% paraformaldehyde, embedded in paraffin, cut into slices and stained with antibodies for immunofluorescence and immunohistochemistry analysis. H&E stain assays were applied for all tissue samples.

[6] = mouse
[7] = mouse, in vivo

CCn1ccn(CCCCCOc2ccc([C@@H]3COc4c(ccc5c4C=CC(C)(C)O5)C3)c(OCCCCCn3ccn(CC)[c]3=[Au][Br])c2)[c]1=[Au][Br] [6d]
IC50 (HepG2 cells [1]; 72 h MTT assay, Mean ± SD): 2.54 ± 0.13 µM
times more toxic than GLA (HepG2 cells [1]; HepG2 cells): 16 times
apoptosis (HepG2 cells [2]): apoptosis was observed
time required for ATP release (HepG2 cells [3]; HepG2, 8 µM, ATP assay kit): 48 h
CRT expression (western blot) (HepG2 cells [3]; HepG2, 24 h): CRT upregulation
HMGB1 expression (western blot) (HepG2 cells [3]; HepG2, 24 h): HMGB1 downregulation
DC maturation (immature DCs): significantly induced DC maturation
PD-L1 expression (western blot) (PD-L1): downregulated; also recorded: significantly inhibited
PD-L1 expression on the membrane surface (PD-L1; immunofluorescence and flow cytometry): reduced
Akt phosphorylation (western blot) (phosphorylated Akt): inhibited Akt phosphorylation
MAPK pathway activation (phosphorylation of MEK1/2 and ERK1/2) in tumor tissue [4]: significantly inhibited
effect on mice body weight ([5]; 6d and OXA 5 mg kg^−1, GLA 10 mg kg^−1, i.p. every two days, OXA after nine days): no significant effect
organ tissue damage (H&E staining) ([5]; heart, liver, spleen, lung, kidney, day 13): did not cause noticeable damage to organ tissues
metabolic stability in whole blood ([6]; 2 h): high metabolic stability
T1/2 ([6]; blood): ∞
Percent Remaining (%) (Mean, n=2) 0 min ([6]; blood, 0 h): 100%
Percent Remaining (%) (Mean, n=2) 5 min ([6]; blood, 5 min): 98.8%
Percent Remaining (%) (Mean, n=2) 15 min ([6]; blood, 0.25 h): 107%
Percent Remaining (%) (Mean, n=2) 30 min ([6]; blood, 0.5 h): 103%
Percent Remaining (%) (Mean, n=2) 60 min ([6]; blood, 1 h): 103%
Percent Remaining (%) (Mean, n=2) 120 min ([6]; blood, 2 h): 108%
safe dose [7]: 5 mg/kg
